Laboratory results: the supplement of paper PMC10307832

Legend:
Experiment in all cases: relative viability (nuclei count vs DMSO), 5 days (fraction); higher = more cells survive
[1] = system: ABC-1
Outline: (§1)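 Five library-drug doses in √10 steps were combined with a fixed anchor-drug dose, or a single drug was given alone, by pin tool to lung cancer cell lines in 1536-well plates the day after seeding. Nuclei were stained and counted after 5 days. Relative viability is the nuclei count in treated wells over that in vehicle wells, taken as the median of duplicate plates.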

[2] = system: CAL-12T
Outline: as §1

[3] = system: COR-L 105
Outline: as §1

[4] = system: ChaGo-K-1
Outline: as §1

[5] = system: EMC-BAC-2
Outline: as §1

[6] = system: EPLC-272H
Outline: as §1

[7] = system: HCC-15
Outline: as §1

[8] = system: HCC-78
Outline: as §1

[9] = system: HOP-62
Outline: as §1

[10] = system: LXF-289
Outline: as §1

[11] = system: NCI-H1666
Outline: as §1

[12] = system: NCI-H1755
Outline: as §1

[13] = system: NCI-H1915
Outline: as §1

[14] = system: NCI-H1975
Outline: as §1

[15] = system: NCI-H2023
Outline: as §1

[16] = system: NCI-H2085
Outline: as §1

[17] = system: NCI-H2126
Outline: as §1

[18] = system: NCI-H3122
Outline: as §1

[19] = system: NCI-H322M
Outline: as §1

[20] = system: NCI-H358
Outline: as §1

[21] = system: NCI-H441
Outline: as §1

[22] = system: UMC-11
Outline: as §1

What does the source list for `O=c1cc(-c2cccc3c2Sc2ccccc2S3)oc(N2CCOCC2)c1` + C[C@@H](Oc1cc(-c2cnn(C3CCNCC3)c2)cnc1N)c1c(Cl)ccc(F)c1Cl [Crizotinib] (partner 1 µM)?
relative viability ([1]; first compound 0.08 µM): 1.27; relative viability ([1]; first compound 0.253 µM): 1.24; relative viability ([1]; first compound 0.8 µM): 1.05; relative viability ([1]; first compound 2.53 µM): 1.31; relative viability ([1]; first compound 8 µM): 1.49; relative viability ([2]; first compound 0.08 µM): 0.729; relative viability ([2]; first compound 0.253 µM): 0.686; relative viability ([2]; first compound 0.8 µM): 0.85; relative viability ([2]; first compound 2.53 µM): 0.6; relative viability ([2]; first compound 8 µM): 0.731; relative viability ([3]; first compound 0.08 µM): 0.833; relative viability ([3]; first compound 0.253 µM): 0.706; relative viability ([3]; first compound 0.8 µM): 0.752; relative viability ([3]; first compound 2.53 µM): 0.798; relative viability ([3]; first compound 8 µM): 1.07; relative viability ([4]; first compound 0.08 µM): 1.09; relative viability ([4]; first compound 0.253 µM): 1.35; relative viability ([4]; first compound 0.8 µM): 1.25; relative viability ([4]; first compound 8 µM): 1.22; relative viability ([5]; first compound 0.08 µM): 0.856; relative viability ([5]; first compound 0.253 µM): 0.753; relative viability ([5]; first compound 0.8 µM): 0.841; relative viability ([5]; first compound 2.53 µM): 0.784; relative viability ([5]; first compound 8 µM): 0.817; relative viability ([6]; first compound 0.08 µM): 0.786; relative viability ([6]; first compound 0.253 µM): 0.891; relative viability ([6]; first compound 0.8 µM): 1.19; relative viability ([6]; first compound 2.53 µM): 0.963; relative viability ([6]; first compound 8 µM): 1.08; relative viability ([7]; first compound 0.08 µM): 0.952; relative viability ([7]; first compound 0.253 µM): 0.934; relative viability ([7]; first compound 0.8 µM): 1.01; relative viability ([7]; first compound 2.53 µM): 0.857; relative viability ([7]; first compound 8 µM): 0.827; relative viability ([8]; first compound 0.08 µM): 0.286; relative viability ([8]; first compound 0.253 µM): 0.34; relative viability ([8]; first compound 0.8 µM): 0.291; relative viability ([8]; first compound 2.53 µM): 0.342; relative viability ([8]; first compound 8 µM): 0.34; relative viability ([9]; first compound 0.08 µM): 0.842; relative viability ([9]; first compound 0.253 µM): 0.998; relative viability ([9]; first compound 0.8 µM): 0.989; relative viability ([9]; first compound 2.53 µM): 0.653; relative viability ([9]; first compound 8 µM): 0.904; relative viability ([10]; first compound 0.08 µM): 0.839; relative viability ([10]; first compound 0.253 µM): 0.877; relative viability ([10]; first compound 0.8 µM): 0.849; relative viability ([10]; first compound 2.53 µM): 0.8; relative viability ([10]; first compound 8 µM): 0.845; relative viability ([11]; first compound 0.08 µM): 0.911; relative viability ([11]; first compound 0.253 µM): 1.04; relative viability ([11]; first compound 0.8 µM): 0.922; relative viability ([11]; first compound 2.53 µM): 0.916; relative viability ([11]; first compound 8 µM): 0.857; relative viability ([12]; first compound 0.08 µM): 0.961; relative viability ([12]; first compound 0.253 µM): 0.974; relative viability ([12]; first compound 0.8 µM): 0.937; relative viability ([12]; first compound 2.53 µM): 0.878; relative viability ([12]; first compound 8 µM): 0.85; relative viability ([13]; first compound 0.08 µM): 1.02; relative viability ([13]; first compound 0.253 µM): 0.987; relative viability ([13]; first compound 0.8 µM): 1.02; relative viability ([13]; first compound 2.53 µM): 0.905; relative viability ([13]; first compound 8 µM): 0.847; relative viability ([14]; first compound 0.08 µM): 1.01; relative viability ([14]; first compound 0.253 µM): 1.02; relative viability ([14]; first compound 0.8 µM): 0.922; relative viability ([14]; first compound 2.53 µM): 0.837; relative viability ([14]; first compound 8 µM): 0.98; relative viability ([15]; first compound 0.08 µM): 0.673; relative viability ([15]; first compound 0.253 µM): 0.682; relative viability ([15]; first compound 0.8 µM): 0.787; relative viability ([15]; first compound 2.53 µM): 0.648; relative viability ([15]; first compound 8 µM): 0.646; relative viability ([16]; first compound 0.08 µM): 0.913; relative viability ([16]; first compound 0.253 µM): 1.06; relative viability ([16]; first compound 0.8 µM): 0.939; relative viability ([16]; first compound 2.53 µM): 0.832; relative viability ([16]; first compound 8 µM): 0.93; relative viability ([17]; first compound 0.08 µM): 1.02; relative viability ([17]; first compound 0.253 µM): 1.09; relative viability ([17]; first compound 0.8 µM): 1.17; relative viability ([17]; first compound 2.53 µM): 0.994; relative viability ([17]; first compound 8 µM): 1.04; relative viability ([18]; first compound 0.08 µM): 0.324; relative viability ([18]; first compound 0.253 µM): 0.266; relative viability ([18]; first compound 0.8 µM): 0.24; relative viability ([18]; first compound 2.53 µM): 0.3; relative viability ([18]; first compound 8 µM): 0.323; relative viability ([19]; first compound 0.08 µM): 0.885; relative viability ([19]; first compound 0.253 µM): 0.901; relative viability ([19]; first compound 0.8 µM): 1.04; relative viability ([19]; first compound 2.53 µM): 0.937; relative viability ([19]; first compound 8 µM): 1.08; relative viability ([20]; first compound 0.08 µM): 0.629; relative viability ([20]; first compound 0.253 µM): 0.634; relative viability ([20]; first compound 0.8 µM): 0.657; relative viability ([20]; first compound 2.53 µM): 0.466; relative viability ([20]; first compound 8 µM): 0.574; relative viability ([21]; first compound 0.08 µM): 0.697; relative viability ([21]; first compound 0.253 µM): 1.28; relative viability ([21]; first compound 0.8 µM): 0.779; relative viability ([21]; first compound 2.53 µM): 0.807; relative viability ([21]; first compound 8 µM): 1; relative viability ([22]; first compound 0.08 µM): 0.729; relative viability ([22]; first compound 0.253 µM): 0.566; relative viability ([22]; first compound 0.8 µM): 0.729; relative viability ([22]; first compound 2.53 µM): 0.644; relative viability ([22]; first compound 8 µM): 0.701
